For orientation: EC50 means the concentration needed to bring the measured effect to its halfway point.

The subject of this assay is HEK293T cells carrying the ATF4 luciferase reporter. The experiment in a line: ATF4-Luc assay (in vitro model of VWMD). Type of assay: cell-based. Particulars: Homo sapiens, HEK-293T; HEK293T ATF4 5'-UTR firefly luciferase reporter cells, 1 μg/mL tunicamycin, 7 hours, One Glo luminescence. As for the experimental part:
In order to test exemplary compounds of the invention in a cellular context, a stable VWMD cell line was first constructed. The ATF4 reporter was prepared by fusing the human full-length ATF4 5′-UTR (NCBI Accession No. BC022088.2) in front of the firefly luciferase (FLuc) coding sequence lacking the initiator methionine as described in Sidrauski et al (eLife 2013). The construct was used to produce recombinant retroviruses using standard methods and the resulting viral supernatant was used to transduce HEK293T cells, which were then subsequently selected with puromycin to generate a stable cell line.
HEK293T cells carrying the ATF4 luciferase reporter were plated on polylysine coated 384-well plates (Greiner Bio-one) at 30,000 cells per well. Cells were treated the next day with 1 μg/mL tunicamycin and 200 nM of a compound of Formula (I) or Formula (II) for 7 hours. Luminescence was measured using One Glo (Promega) as specified by the manufacturer. Cells were maintained in DMEM with L-glutamine supplemented with 10% heat-inactivated FBS (Gibco) and Antibiotic-Antimycotic solution (Gibco).
Table 2 below summarizes the EC50 data obtained using the ATF4-Luc assay for exemplary compounds of the invention.

On to `O=C(COc1ccc(Cl)c(F)c1)NC12CCC(C(=O)N3CC(c4ccc(Cl)cc4)C3)(CC1)CC2O` (stereo not shown) [Compound 115, 2-(4-chloro-3-fluorophenoxy)-N-{4-[3-(4-chlorophenyl)azetidine-1-carbonyl]-2-hydroxybicyclo[2.2.2]octan-1-yl}acetamide], for which the EC50 is < 50 nM.

Take `O=C(COc1ccc(Cl)c(F)c1)NC12CCC(C(=O)N3Cc4ccc(Cl)cc4C3)(CC1)CC2` [Compound 112, N-[4-(5-chloro-1,3-dihydro-2H-isoindole-2-carbonyl)bicyclo[2.2.2]octan-1-yl]-2-(4-chloro-3-fluorophenoxy)acetamide]: the EC50 was > 2000 nM.

Regarding `O=C(COc1ccc(Cl)c(F)c1)NC12CC(C(=O)N3CCC(c4ccc(Cl)cc4)CC3)(C1)C2` [Compound 101, 2-(4-chloro-3-fluorophenoxy)-N-{3-[4-(4-chlorophenyl)piperidine-1-carbonyl]bicyclo[1.1.1]pentan-1-yl}acetamide], the EC50 is 50 to 250 nM.

Regarding `O=C(COc1ccc(Cl)c(F)c1)NC12CCC(C(=O)N3CC(O)(c4ccc(Cl)cc4)C3)(CC1)[C@H](O)C2` [Compound 109, 2-(4-chloro-3-fluorophenoxy)-N-{(3R)-4-[3-(4-chlorophenyl)-3-hydroxyazetidine-1-carbonyl]-3-hydroxybicyclo[2.2.2]octan-1-yl}acetamide], the EC50 was in the range of 50 to 250 nM.

On to `O=C(COc1ccc(Cl)c(F)c1)NC12CCC(C(=O)N3CCC(c4ccc(Cl)cc4)CC3)(CC1)CC2` [Compound 102, 2-(4-chloro-3-fluorophenoxy)-N-{4-[4-(4-chlorophenyl)piperidine-1-carbonyl]bicyclo[2.2.2]octan-1-yl}acetamide], for which the EC50 fell in the range of 50 to 250 nM.

`O=C(COc1ccc(Cl)c(F)c1)NC12CCC(C(=O)N3CC(c4ccc(Cl)cc4)C3)(CC1)CC2` [Compound 105, 2-(4-chloro-3-fluorophenoxy)-N-{4-[3-(4-chlorophenyl)azetidine-1-carbonyl]bicyclo[2.2.2]octan-1-yl}acetamide]: the EC50 was < 50 nM.

In the case of `O=C(COc1ccc(Cl)c(F)c1)NC12CCC(C(=O)N3CC(O)(c4ccc(Cl)cc4)C3)(CC1)[C@@H](O)C2` [Compound 108, 2-(4-chloro-3-fluorophenoxy)-N-{(3S)-4-[3-(4-chlorophenyl)-3-hydroxyazetidine-1-carbonyl]-3-hydroxybicyclo[2.2.2]octan-1-yl}acetamide], the concentration giving a half-maximal response (EC50) lay within 250 to 1000 nM.

For the molecule `O=C(COc1ccc(Cl)c(F)c1)NC12CC(C(=O)N3CCC(c4ccc(Cl)cc4)C3)(C1)C2` (stereo not shown) [Compound 103, 2-(4-chloro-3-fluorophenoxy)-N-{3-[3-(4-chlorophenyl)pyrrolidine-1-carbonyl]bicyclo[1.1.1]pentan-1-yl}acetamide], the EC50 is > 2000 nM.

For the molecule `O=C(COc1ccc(Cl)c(F)c1)NC12CC(C(=O)N3CC(O)(c4ccc(Cl)cc4)C3)(C1)C2` [Compound 110, 2-(4-chloro-3-fluorophenoxy)-N-{3-[3-(4-chlorophenyl)-3-hydroxyazetidine-1-carbonyl]bicyclo[1.1.1]pentan-1-yl}acetamide], the EC50 is > 2000 nM.

In the case of `O=C(COc1ccc(Cl)c(F)c1)NC12CC(C(=O)N3Cc4ccc(Cl)cc4C3)(C1)C2` [Compound 111, N-[3-(5-chloro-1,3-dihydro-2H-isoindole-2-carbonyl)bicyclo[1.1.1]pentan-1-yl]-2-(4-chloro-3-fluorophenoxy)acetamide], the EC50 fell in the range of 250 to 1000 nM.

Turning to `O=C(COc1ccc(Cl)c(F)c1)NC12CCC(C(=O)N3CCN(c4ccc(Cl)cc4)CC3)(CC1)CC2` [Compound 107, 2-(4-chloro-3-fluorophenoxy)-N-{4-[4-(4-chlorophenyl)piperazine-1-carbonyl]bicyclo[2.2.2]octan-1-yl}acetamide], the EC50 was in the range of 50 to 250 nM.

Consider `O=C(COc1ccc(Cl)c(F)c1)NC12CCC(C(=O)N3CCC(c4ccc(Cl)cc4)C3)(CC1)CC2` (stereo not shown) [Compound 104, 2-(4-chloro-3-fluorophenoxy)-N-{4-[3-(4-chlorophenyl)pyrrolidine-1-carbonyl]bicyclo[2.2.2]octan-1-yl}acetamide], for which the EC50 is > 2000 nM.

With `O=C(COc1ccc(Cl)c(F)c1)NC12CC(C(=O)N3CC(c4ccc(Cl)cc4)C3)(C1)C2` [Compound 106, 2-(4-chloro-3-fluorophenoxy)-N-{3-[3-(4-chlorophenyl)azetidine-1-carbonyl]bicyclo[1.1.1]pentan-1-yl}acetamide], the EC50 is < 50 nM.

As to `O=C(COc1ccc(Cl)c(F)c1)NC12CCC(C(=O)N3CC(c4ccccc4)C3)(CC1)CC2O` (stereo not shown) [Compound 113, 2-(4-chloro-3-fluorophenoxy)-N-[2-hydroxy-4-(3-phenylazetidine-1-carbonyl)bicyclo[2.2.2]octan-1-yl]acetamide], the EC50 fell in the range of 250 to 1000 nM.

For `O=C(COc1ccc(Cl)c(F)c1)NC12CCC(C(=O)N3CCC(c4ccc(Cl)cc4)C3)(CC1)CC2O` (stereo not shown) [Compound 114, 2-(4-chloro-3-fluorophenoxy)-N-{4-[3-(4-chlorophenyl)pyrrolidine-1-carbonyl]-2-hydroxybicyclo[2.2.2]octan-1-yl}acetamide], the EC50 was > 2000 nM.

In the case of `O=C(COc1ccc(Cl)c(F)c1)NC12CC(C(=O)N3CC4(C3)CN(c3ccc(Cl)c(F)c3)C4)(C1)C2` [Compound 100, 2-(4-chloro-3-fluorophenoxy)-N-{3-[6-(4-chloro-3-fluorophenyl)-2,6-diazaspiro[3.3]heptane-2-carbonyl]bicyclo[1.1.1]pentan-1-yl}acetamide], the EC50 is > 2000 nM.

The record behind these values is patent US20230192712A1, “MODULATORS OF THE INTEGRATED STRESS PATHWAY” (Calico Life Sciences LLC, priority 2017, published 2023).
